Measured values: article PMC12444563 (ACS Omega, 2025)
Starred links: 1 amine or outer side, 2 acyl side, 3 side chain; linkers in the order of their positions; H or OH if unused. Non-standard residues stand in square brackets, D forms with d. Residues, ends and D or L forms follow the SMILES beside them. *: point of attachment. Paclitaxel(2'-OCO-DMEDA) = CC(=O)O[C@H]1C(=O)[C@@]2(C)[C@H]([C@H](OC(=O)c3ccccc3)[C@]3(O)C[C@H](OC(=O)[C@H](OC(=O)N(C)CCN(C)*)[C@@H](NC(=O)c4ccccc4)c4ccccc4)C(C)=C1C3(C)C)[C@]1(OC(C)=O)CO[C@@H]1C[C@@H]2O; Fmoc = O=C(OCC1c2ccccc2-c2ccccc21)*; PABC = O=C(OCc1ccc(N[*:1])cc1)[*:2]

What was measured:
[1] = Plasma stability assay, rat plasma; format: in vitro ADME, rat (Sprague Dawley); settings: 37 °C
Method: (§1) The plasma stability assays were performed by Selvita SA (Krakow, Poland) following the protocol described in the Supporting Information. For the use of human plasma, consent was obtained from the subject or from the next of kin.
(§2) 9. Plasma stability assays
(§3) Protocol for full plasma assay: a stock solution of compounds 1-4 in DMSO was incubated in human (Anticoagulants: Na Heparin; Gender: Pooled; Cat. No: IPLANAH100ML; Lot: 37921; Supplier:
(§4) Innovative Research) and rat (Strain: Sprague Dawley; Anticoagulants: Na Heparin; Cat. No:
(§5) IGRTSDPLANAH100ML; Supplier: Innovative Research) plasma at a final concentration of 1 μM (final concentration of DMSO = 1 %). The samples were incubated at 37 °C with a shaking of 450 rpm. Aliquots of the samples were analyzed at time 0, 30 minutes, 2 and 4 hours by LC-MS/MS […]
(§6) The areas of the peak of the compounds 1-4 in the LC chromatogram were used to evaluate stability profile. The percentage of residual compounds 1-4 was calculated as the ratio between the area of the peak of the analyte and the area of the internal standard.
(§7) % residual compound = Area analyte ∙ 100
(§8) Table S7. LC-MS data of the stability assays in plasma extracts of compound 1.
(§9) Stability assays compound 1
(§10) Time Plasma stability Plasma stability S9 stability S9 stability
(§11) (min.) (matrix: rat) (matrix: human) Time (min.) (matrix: rat) (matrix: human) % remaining % remaining % remaining % remaining
(§12) Table S8. LC-MS data of the stability assays in plasma extracts of compound 2.
(§13) Stability assays compound 2

[2] = Liver S9 fraction stability assay, rat; format: in vitro ADME; settings: male, rat, liver S9 fraction, 37 °C, read-out: S9 stability (matrix: rat) % remaining
Method: as §1
(§14) 9. Plasma stability assays […]
(§15) Protocol for S9 fraction: a stock solution of compounds 1-4 in DMSO was incubated in human (male, pooled, commercially obtained from Xeno-tech lot: 2310104) and rat (male, pooled, commercially obtained from Xeno-tech (lot: 2210317)) S9 fraction at a final concentration of 1 μM (final concentration of DMSO = 0.5 %). The samples were incubated at 37 °C with a shaking of 450 rpm.
(§16) Aliquots of the samples were analyzed at time 0, 30 and 90 minutes by LC-MS/MS analysis.
as §6, §7, §8, §9, §10, §11, §12, §13

[3] = Liver S9 fraction stability assay, human; format: in vitro ADME; settings: male, human, liver S9 fraction, 37 °C, read-out: S9 stability (matrix: human) % remaining
Method: as §1, §14, §15, §16, §6, §7, §8, §9, §10, §11, §12, §13

[4] = Plasma stability assay, human plasma; format: in vitro ADME; settings: 37 °C
Method: as §1, §2, §3, §4, §5, §6, §7, §8, §9, §10, §11, §12, §13

[5] = target: T1, bovine spleen Cathepsin B (Bos taurus, UniProt P07688); assay: Cathepsin B cleavage assay (UHPLC-HRMS Orbitrap analysis); format: biochemical; settings: for % residual compound, Average %: 37 °C, pH 5.4, 5 μM, triplicate
T1 construct: bovine spleen Cathepsin B (SigmaAldrich C6286, ≥10 units/mg protein); purchased SigmaAldrich C6286; host or cells: bovine spleen (tissue-derived)
Method: The Cathepsin B cleavage assay was performed by incubating compounds 1–4 at 37 °C under gently shaking conditions in the presence of the active form of Cathepsin B. More specifically, 122.4 μL of an enzyme-activating solution (composed of 7.48 mg of L-cysteine dissolved in 2 mL of a buffer solution containing 20 mM NaOAc, 1 mM EDTA, pH 5.4 to give a final cysteine concentration of 30.88 mM) was mixed with 12.6 μL of enzyme stock solution, previously prepared by solubilization of bovine spleen Cathepsin B (SigmaAldrich C6286, ≥10 units/mg protein) in 1 mL of buffer solution (without cysteine) to give a concentration of enzyme stock solution of 12 units/mL. After the dilution, the final concentration of Cathepsin B was 1.12 u/mL. Then, the diluted enzyme solution was incubated at 37 °C for 15 min to activate Cathepsin B. After 15 min, 6 μL of 117 μM compound solution, previously prepared by diluting 5.85 μL of 1 mM stock solution of the compound in 44.15 μL of dry DMSO (giving a 117 μM solution), was added to the test tube and the cleavage assay solution was incubated at 37 °C under gentle shaking conditions. […] The solutions were then centrifuged for 10 min at 6000 rpm. Blank solutions were prepared for each compound by dilution of 6 μL of a 117 μM compound solution into 135 μL of an enzyme-activating solution. UHPLC-MS analyses were carried out using a Vanquish UHPLC System (Thermo Fisher Scientific) and Orbitrap Exploris 120 (Thermo Fisher Scientific). Thermo Scientific Xcalibur software was used to control the instruments and acquire the data. Freestyle 1.8 software was used for processing the data. UHPLC chromatographic separations were performed on a reversed-phase column Accucore C18 50 × 2.1 mm, 2.6 μm (Thermo Fisher Scientific). A gradient system was used with the mobile phase consisting of solvent A: H2O + 0.05% formic acid and solvent B: acetonitrile. The areas of the peak of compounds 1–4 in the extracted ion chromatogram were used to evaluate the kinetics of the cleavage process. The percentage of residual compound was calculated as the ratio between the areas of the peak of the full compound at the desired time point and in the blank analysis. %Residualcompound=areacompoundatthedesiredtimepoint/areacompoundintheblanksolution×100

## CC(=O)O[C@H]1C(=O)[C@@]2(C)[C@H]([C@H](OC(=O)c3ccccc3)[C@]3(O)C[C@H](OC(=O)[C@H](OC(=O)N(C)CCN(C)C(=O)OCc4ccc(NC(=O)CNC(=O)[C@H](CC(C)C)NC(=O)[C@@H]5CCCN5C(=O)CNC(=O)OCC5c6ccccc6-c6ccccc65)cc4)[C@@H](NC(=O)c4ccccc4)c4ccccc4)C(C)=C1C3(C)C)[C@]1(OC(C)=O)CO[C@@H]1C[C@@H]2O [Compound 1, Fmoc-GPLG-PABC-diamine-PTX] (Fmoc-GPLG[PABC]-{Paclitaxel(2'-OCO-DMEDA)})
[1]; 1 μM, 240 min (4 h)
  Plasma stability (matrix: rat) % remaining: 100%
[1]; Sprague Dawley, rat, plasma, 30 min, read-out: Plasma stability (matrix: rat) % remaining
  remaining at 0.5 h, 1 μM: 98.1%
[1]; Sprague Dawley, rat, plasma, 120 min, read-out: Plasma stability (matrix: rat) % remaining
  remaining at 2 h, 1 μM: 111%
[1]; Sprague Dawley, rat, plasma, 240 min (4 h), read-out: Plasma stability (matrix: rat) % remaining
  remaining at 4 h, 1 μM: 103%
[2]; 30 min
  remaining at 0.5 h, 1 μM: 88.8%
[2]; 90 min (1.5 h)
  remaining at 1.5 h, 1 μM: 94.5%
[3]; 30 min
  remaining at 0.5 h, 1 μM: 104%
[3]; 90 min (1.5 h)
  remaining at 1.5 h, 1 μM: 95%
[4]; 1 μM, 240 min (4 h)
  Plasma stability (matrix: human) % remaining: 100%
[4]; both sexes, human, plasma, 30 min, read-out: Plasma stability (matrix: human) % remaining
  remaining at 0.5 h, 1 μM: 98.9%
[4]; both sexes, human, plasma, 120 min, read-out: Plasma stability (matrix: human) % remaining
  remaining at 2 h, 1 μM: 117%
[4]; both sexes, human, plasma, 240 min (4 h), read-out: Plasma stability (matrix: human) % remaining
  remaining at 4 h, 1 μM: 112%
[5]; 2 min incubation with Cathepsin B
  % residual compound, Average %: 94.40%
[5]; 15 min incubation with Cathepsin B
  % residual compound, Average %: 80.50%
[5]; 30 min incubation with Cathepsin B
  % residual compound, Average %: 73.35%
[5]; 60 min incubation with Cathepsin B
  % residual compound, Average %: 68.45%
[5]; 120 min incubation with Cathepsin B
  % residual compound, Average %: 65.40%
[5]; 4 h incubation with Cathepsin B, HRMS
  peak of free Paclitaxel in the incubated solution: not possible to observe
[5]; 24 h incubation with Cathepsin B, HRMS
  peak of free PTX in the incubated solution: confirmed the presence
[5]; Cathepsin B, compound 1: initial time points 2 min to 1 h, compound 2: over 4 h
  cleavage kinetics compared within compounds 1-4: fastest
[5]; replicate R1, 2 min
  % residual compound, % R1: 108.85%
[5]; replicate R1, 15 min
  % residual compound, % R1: 85.04%
[5]; replicate R1, 30 min
  % residual compound, % R1: 73.97%
[5]; replicate R1, 60 min
  % residual compound, % R1: 68.69%
[5]; replicate R1, 120 min
  % residual compound, % R1: 69.51%
[5]; replicate R1, 240 min
  % residual compound, % R1: 56.09%
[5]; replicate R3, 2 min
  % residual compound, % R3: 97.22%
[5]; replicate R3, 15 min
  % residual compound, % R3: 78.25%
[5]; replicate R3, 30 min
  % residual compound, % R3: 74.08%
[5]; replicate R3, 60 min
  % residual compound, % R3: 69.05%
[5]; replicate R3, 120 min
  % residual compound, % R3: 67.07%
[5]; replicate R3, 240 min
  % residual compound, % R3: 70.97%
